Read-outs that look alike come from different tables or passages of the source.

One series deals with rat heart. Put plainly: Coronary blood flow (PCS2A): isolated perfused heart. As to the method:
CORONARY BLOOD FLOW (PCS2A)
Male rats (400-600 gms) are pretreated with Na haparin 2000 units and anesthetized with Na pentobarbital (50 mg/kg) administered intraperitoneally. Once anesthetized, the rat heart is rapidly excised, the ascending aorta fitted to the aortic perfusion cannula, and […] with a ligature. The coronary arteries are perfused initially at a rate of about 15 ml/min for two to three minutes, afterwhich they are perfused at constant pressure of 70 mm Hg and temperature of 37°C. The electrocardiogram (ECG) is recorded using two platinum electrodes positioned at the base and apex of the left ventricle. A second heart is excised, cannulated, and perfused by the same method outlined above. Both hearts are tested in parallel. The standard physiological salt solution (PSS) is a modified Krebs-Hanseleit bicarbonate buffer of the following composition in mM concentration: NaCI, 127; NaHC03, 25; dextrose, 5.5; Na Pyruvate, 2.0: KCI, 4.7; MgS04, 1.1; KH 2P04, 1.2; CaCl2·2H2O, 2.5; CaNa2 EDTA, 0.05.
A 30-minute stabilization period is observed before starting the test protocol.
The microprocessor control system is a servo mechanism which permits coronary perfusion pressure (CPP) and drug concentration to be maintained constant independent of changes in coronary flow. The level at which CPP and drug concentration are maintained can be changed by commands communicated through the microprocessor keyboard. Dose-response curves are carried out by perfusing concentrated drug solution (DC) at rates proportional to total coronary flow (CFT). Drug concentrations are increased by proportionate increases in the rate of DC infusion over CFT via the microprocessor keyboard. The proportional flow rates for DC:CFT is about .0002:1 at the low end and .02: at the high end of the dose-response curve. Dose-response curves encompassing at least two log doses are carried out by preparing two DCs with a concentration difference of 1:100. Following the first dose range of two log doses, the DC are switched, proportional pumping rate adjusted, and the dose-response curve continued for another two log doses. The standard dose-response curve is carried out in one-half log dose increments starting at a subthreshold dose and ending at a dose which produces near maximal response in activity. Standard reference compounds are tested over the range of 10-^9 to 10-^6M.
Measurements are for heart rate (HR) and coronary flow (CF). Units are: HR, beats/minute (bpm) and CF, milliliters/minute (ml/min). HR is calculated from the ECG strip chart recording and CF is calculated by recording analog outputs from pumps 1 and 2. Outputs from pump #1 = CFT and the output from pump #2 = CF for heart B (CFg). CF for heart A (CFA) is calculated (CFT - CFB = CFA).
Using the above technique, the effects of the compound of Examples 1 and 2 are as follows: […]

Series [1] has as its system Swiss-Webster male mice. Put plainly: Mouse Activity and Screen Test (MAST): inhibition of spontaneous locomotion (LI). The series is classed as in vivo. As to the method:
(§1) Treatments are administered intraperitoneally one hour prior to testing. […] Compounds are dissolved or suspended in 0.2% Methocel. Control animals are injected with Methocel.
Immediately following the screen test, the final phase of testing is initiated by placing each group of three mice in one actophotometer (Life Sciences, 22, 1067-1076, 1978). The actophotometer consists of a cylindrical chamber whose center is occupied by another cylinder which contains the illumination for six photocells located on the perimeter of the chamber. Six light-beam interruptions equal one count. Locomotor activity is recorded by computer at ten minute intervals for 60 minutes. […]

Series [2] concerns Swiss-Webster male mice. Put plainly: Mouse Activity and Screen Test (MAST): screen test (ST). The series is classed as in vivo. The settings on record: lowest dose at which an A rating (60-100%) is achieved, screen test; intraperitoneally. As to the method:
as §1
The compounds are identified in the Examples.

Another series has as its system conscious rat. Put plainly: Antihypertensive evaluation (AHP3): aortic blood pressure and heart rate. Particulars: read-out: AHP3 BP LAD. The series is classed as in vivo. An excerpt:
[…] EVALUATION (AHP3)
This test procedure is described in the following paragraphs.
A Method for the Direct Monitoring of Aortic Blood Pressure and Heart Rate from Conscious Rats
The continuous monitoring of pulsatile blood pressure (BP) from unrestrained conscious rats surgically equipped with polyethylene cannulas was accomplished by means of a computer assisted data capture scheme (CADCS). The absic elements of the methodology are the cannulation procedure and the CADCS.
Cannulation Procedure: Rats were anesthetized with Telazol (1:1 tiletamine HCI and zolazepam HCI); 20-40 mg/kg IM and the descending aorta exposed via a midline incision. Cannulas fabricated from polyethylene tubing were inserted into the aorta via an undersized puncture hole below the renal arteries. The puncture hole was made by a 23 G disposable needle with a section of the aorta clamped off above and below the puncture site. The cannulas, consisting of a PE100 (0.86 mm ID) body and a PE50 (0.58 mm ID) tip, were attached to a trocar, inserted through the psoas muscle, and passed subcutaneously along the midline of the back and externalized between the ears. The cannulas were anchored to the psoas muscle and between the scalulae (3-0 green braided suture). The midline incision was closed in two steps (muscle first, skin second) using continuous over-and over sutures (4-0 chronic). Each rat was then given penicillin 30,000 units subcutaneously (Penicillin G Procaine Sterile Suspension).
The rats were fitted with a harness-spring-swivel assembly designed to protect the cannula and to provide the rat relative freedom of movement. The harnesses were fabricated from nylon hook and loop tape cemented to a metal plate to which spring wires (18-8 stainless steel), were attached to brass swivels. Each polyethylene cannula was channeled through a spring and connected through a swivel to a pressure transducer (Model P23Gb; Statham Instruments; Hato Rey, Puerto Rico) and an infusion pump (Sage model 234-7; Orion Research, Cambridge, Ma) by means of PE100 tubing. While on test, each rat received a continuous slow infusion of heparinized saline solution (approximately 400 I or 40 units of heparin per 24 hour period) to prevent clot formation. Additional "flushes" of the cannula with heparinized saline were carried out when the aortic pulse pressure (systolic minus diastolic) was less than 25 mm Hg.
CADCS: The pulsatile blood pressure and heart rate of each of 32 rats was monitored every minute by means of two in-laboratory microcomputers communicating directly with a data concentrator computer. The data were first stored on the data concentrator disk and then transferred to a magnetic tape for analysis and report generation by the main research computer. The overall scheme involved modulating the primary signal from the pressure transducer, generating the primary data set of the one-minute values for systolic, diastolic, and mean blood pressures and heart rate by the in-lab microcomputer and the storage, analysis, and report generation by the main research computer.
The transducers were connected to analog signal conditioning modules. The modules providing a regulated excitation voltage for the transducers, amplification as required to interface the microprocessors and an active low pass filter to compensate for the pressure wave form distortion produced by the flexible, fluid filled, narrow cannula.
The microcomputers (one for each of two groups of 16 rats) were connected to the input components through the module interface units, an analog-to-digital converter for the pressure wave form signal and the digital inputs for the dose and event marker switches. The microcomputer controlled the sequential acquisition of data from the modular interface units through an internal synchronous time-of-day clock/ time base generator. […]

Where [3] appears, read: coronary flow, isolated perfused rat heart, read-out: PCS2A CF ED50.
[4] abbreviates: heart rate, isolated perfused rat heart, read-out: PCS2A HR ED50.
[5] abbreviates: Mus musculus, ip; read-out: MAST LI LAD.
The mark [6] stands for this setting: lowest dose tested at which a >10% reduction in blood pressure for four consecutive hours is achieved, conscious rat.

On to `OC[C@H]1O[C@@H](n2cnc3c(NCCCCC(c4ccccc4)c4ccccc4)ncnc32)[C@H](O)[C@@H]1O` [Example 7, N^6-(5,5-Diphenylpentyl)adenosine], for which the values for the EC50 in the series with rat heart (setting [3]) and in the series with rat heart (setting [4]) were greater than 3000 nM and 3000 nM, respectively. In addition, the minimal effective dose in the series on Swiss-Webster male mice [1] (setting [5]) was 100 mg/kg; in the series with conscious rat (setting [6]), greater than 10 mg/kg. In addition, the “MAST ST LAD” value in the series on Swiss-Webster male mice [2] was greater than 100 mg/kg.

Turning to `OC[C@H]1O[C@@H](n2cnc3c(NCC(c4ccccc4)c4ccc(F)cc4)nc(Cl)nc32)[C@H](O)[C@@H]1O` (stereo partly shown) [Example 11, N^6-(2-(4-Fluorophenyl)-2-phenylethyl)-2-chloroadenosine], the figures for the EC50 in the series with rat heart (setting [3]) and in the series on rat heart (setting [4]) were 50 nM and greater than 3000 nM, respectively. Further, the minimal effective dose in the series with Swiss-Webster male mice [1] (setting [5]) was found to be 30 mg/kg; with conscious rat (setting [6]), 10 mg/kg. The “MAST ST LAD” value in the series on Swiss-Webster male mice [2] is listed as greater than 100 mg/kg.

For `Nc1nc(NCC(c2ccccc2)c2ccc(F)cc2)c2ncn([C@@H]3O[C@H](CO)[C@@H](O)[C@H]3O)c2n1` (stereo partly shown) [Example 12, N^6-(2-(4-Fluorophenyl)-2-phenylethyl)-2-amino adenosine], the EC50 with rat heart (setting [3]) and with rat heart (setting [4]) was greater than 10000 nM throughout. Besides, the minimal effective dose with Swiss-Webster male mice [1] (setting [5]) is 30 mg/kg; in the series with conscious rat (setting [6]), 10 mg/kg. Also, the “MAST ST LAD” value in the series on Swiss-Webster male mice [2] is greater than 100 mg/kg.

As to `COc1ccc(C(CNc2ncnc3c2ncn3[C@@H]2O[C@H](CO)[C@@H](O)[C@H]2O)c2ccccc2)cc1` (stereo partly shown) [Example 19, N^6-(2-(4-Methoxyphenyl)-2-phenylethyl)adenosine], the EC50 was 30 nM in the series on rat heart (setting [3]) and greater than 3000 nM in the series with rat heart (setting [4]). The minimal effective dose with Swiss-Webster male mice [1] (setting [5]) and in the series on conscious rat (setting [6]) was 10 mg/kg in each case. Besides, the “MAST ST LAD” value in the series with Swiss-Webster male mice [2] is listed as 30 mg/kg.

On to `O=[N+]([O-])c1ccc(C(CNc2ncnc3c2ncn3[C@@H]2O[C@H](CO)[C@@H](O)[C@H]2O)c2ccc([N+](=O)[O-])cc2)cc1` [Example 20, N^6-(2,2-Di-(4-nitrophenyl)ethyl)adenosine], for which the EC50 in the series with rat heart (Rattus norvegicus, read-out: PCS2A CF ED50) was 300 nM; with rat heart (Rattus norvegicus, read-out: PCS2A HR ED50), greater than 3000 nM. In addition, the minimal effective dose in the series with Swiss-Webster male mice [1] (Mus musculus, ip, read-out: MAST LI LAD) was 100 mg/kg; in the series on conscious rat (Rattus norvegicus) it was greater than 10 mg/kg. Besides, the “MAST ST LAD” value in the series on Swiss-Webster male mice [2] is greater than 100 mg/kg.

On to `CC(CNc1nc(N)nc2c1ncn2[C@@H]1O[C@H](CO)[C@@H](O)[C@H]1O)(c1ccccc1)c1ccccc1` [Example 21, N'-(2,2-Diphenylpropyl)-2-aminoadenosine], for which the EC50 in the series on rat heart (setting [3]) and in the series on rat heart (setting [4]) was greater than 10000 nM throughout. Further, the values for the minimal effective dose with Swiss-Webster male mice [1] (setting [5]) and with conscious rat (setting [6]) were 30 mg/kg and greater than 10 mg/kg, respectively. Besides, the “MAST ST LAD” value with Swiss-Webster male mice [2] is on record as greater than 100 mg/kg.

For `OC[C@H]1O[C@@H](n2cnc3c(NCC(O)(c4ccccc4)c4ccccc4)ncnc32)[C@H](O)[C@@H]1O` [Example 22, N^6-(2,2-Diphenyl-2-hydroxyethyl)adenosine], the EC50 with rat heart (setting [3]) was greater than 1000 nM; in the series with rat heart (setting [4]), 500 nM. The minimal effective dose with Swiss-Webster male mice [1] (setting [5]) stood at 1 mg/kg; with conscious rat (setting [6]) it was 10 mg/kg. The “MAST ST LAD” value in the series on Swiss-Webster male mice [2] was 100 mg/kg.

With `Nc1nc(NCC(O)(c2ccccc2)c2ccccc2)c2ncn([C@@H]3O[C@H](CO)[C@@H](O)[C@H]3O)c2n1` [Example 23, N^6-(2,2-Diphenyl-2-hydroxyethyl)-2-aminoadenosine], the EC50 in the series with rat heart (setting [3]) is greater than 3000 nM; with rat heart (setting [4]), roughly 1000 nM. Further, the minimal effective dose with Swiss-Webster male mice [1] (setting [5]) is 3 mg/kg; with conscious rat (setting [6]) it was greater than 10 mg/kg. In addition, the “MAST ST LAD” value in the series on Swiss-Webster male mice [2] is greater than 100 mg/kg.

These data come from patent publication EP0139358B1, “N6-substituted diarylalkyl adenosines, processes for their production and pharmaceutical compositions comprising the same” (priority 1983, dated 1985).
